According to US20200268829A1, “METHODS AND COMPOSITIONS FOR INHIBITING METASTASES OF AN ENDOTHELIN B RECEPTOR EXPRESSING CANCER” (ENB Therapeutics, Inc., priority 2020, published 2020):
pIC50, pKi: −log10 of the molar value. Entries after “also recorded” stand apart in the source; their conditions may differ.

Experiments:
[1] = biological target: T1, ETBR (Homo sapiens, UniProt P24530); assay: ETBR antagonist potency (IC50, Ki); no method given; format: binding; conditions: for pIC50: for BQ788 printed with 'potent inhibitor of ETBR-related melanoma cell growth'
T1 sequence (P24530 27-442): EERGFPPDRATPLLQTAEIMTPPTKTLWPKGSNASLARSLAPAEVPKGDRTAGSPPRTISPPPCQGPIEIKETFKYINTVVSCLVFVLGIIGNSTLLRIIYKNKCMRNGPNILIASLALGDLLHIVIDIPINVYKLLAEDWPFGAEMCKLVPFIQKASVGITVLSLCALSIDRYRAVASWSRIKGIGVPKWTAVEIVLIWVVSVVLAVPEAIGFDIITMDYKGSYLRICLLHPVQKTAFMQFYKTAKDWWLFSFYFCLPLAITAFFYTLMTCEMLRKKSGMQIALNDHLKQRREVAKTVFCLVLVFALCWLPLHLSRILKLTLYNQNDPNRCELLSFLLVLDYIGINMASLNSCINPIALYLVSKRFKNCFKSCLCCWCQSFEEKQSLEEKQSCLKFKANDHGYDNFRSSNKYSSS

[2] = system: melanoma cell lines overexpressing ETBR (brain metastases); assay: Mouse melanoma brain metastasis model, xenografts of melanoma cell lines overexpressing ETBR; format: in vivo, mice; conditions: 60 mg/kg/day
Method: FIGS. 5A, 5B, 5C, 5D, and 5E. ETBR antagonist inhibits melanoma brain metastasis in mice. […] In this study, lentiviral vectors were used to overexpress ETBR in melanoma cell lines, which were in turn used to implant xenografts in mice.
A192621 was administered at a dose of 60 mg/kg/day using a mouse melanoma model. […] In this study, lentiviral vectors were used to overexpress ETBR in melanoma cell lines, which were in turn used to implant xenografts in mice. In this study, lentiviral vectors were used to overexpress ETBR in melanoma cell lines, which were in turn used to implant xenografts in mice.

[3] = Body weight under ascending intranasal BQ788 doses over 42 days; format: in vivo, athymic nude mice; conditions: BQ788 alone, intranasally in 20% DMSO, ascending doses over 42 days
Method: FIG. 9. ETAR antagonist and Niacinamide mitigate weight loss from BQ788. Six week old athymic nude mice were administered the ETBR antagonist BQ788 intranasally in 20% DMSO at the indicated ascending doses over a period of 42 days. One group was additionally administered the ETAR antagonist Macitentan orally at a dose of 5 mg/kg daily. The drinking water of these mice was supplemented with the B vitamin niacinamide at a concentration of 0.3 mg/mL. […] Co-administration of the ETAR antagonist Macitentan with niacinamide supplementation mitigated this weight loss. […] Co-administration of ETAR antagonists and niacinamide with ETBR antagonists mitigated the adverse effects of ETBR antagonists when administered for therapeutic purposes.
Six week old athymic nude mice (n=3 per group) were administered the ETBR antagonist BQ788 intranasally in 20% DMSO at the indicated ascending doses over a period of 42 days. One group was additionally administered the ETAR antagonist Macitentan orally at a dose of 5 mg/kg daily. The drinking water of these mice was supplemented with the B vitamin niacinamide at a concentration of 0.3 mg/mL. […] Co-administration of the ETAR antagonist Macitentan with niacinamide supplementation mitigated this weight loss. […]

[4] = system: SKMEL28 human melanoma cells; assay: SKMEL28 human melanoma xenograft in mice: tumor weight, lung metastases, apoptosis; format: in vivo
Method: Mice were implanted with 1×10^6 SKMEL28 human melanoma cells. Tumors were established for 10 days until palpable then 120 ng (˜60 ug/kg) BQ788 dissolved in DMSO was injected IP 3×per week×6 weeks. Mice were then sacrificed and lungs harvested and tumors weighed. A 75% reduction in tumor weight was observed.

[5] = system: A375 human melanoma cells; assay: Subcutaneous A375 human melanoma xenograft; format: in vivo, Nu/J nude mice; conditions: A375 sc xenograft; Dabrafenib 100 mg/Kg PO daily, alone or with BQ788 600 ng IP TIW; p<0.05
Method: FIG. 7. BQ788 synergizes with Dabrafenib in vivo. A375 human melanoma cells were implanted subcutaneously into the rear flank of Nu/J nude mice and allowed to grow to 150 mm3-200 mm3 prior to randomization and initiation of treatment. The mice received the following treatments: (1) vehicle (n=8), (2) Dabrafenib 100 mg/Kg PO daily (n=5), and (3) Dabrafenib+BQ788 600 ng IP TIW (n=5).
A375 human melanoma cells (3×10^6) were implanted subcutaneously into the rear flank of Nu/J nude mice and allowed to grow to 150 mm3-200 mm3 prior to randomization and initiation of treatment. The treatment groups were as follows: (1) vehicle (n=8), Dabrafenib 100 mg/Kg PO daily (n=5), (2) Dabrafenib+BQ788 600 ng IP 3×per week (n=5).

Row | SMILES | pKi [1] | pIC50 [1] | CNS melanoma tumors [2] | brain melanoma metastases [2] | survival [2] | average weight loss relative to baseline body weight by the end of the study [3] [%] | reduction in tumor weight ([4]; SKMEL28 xenograft mice, 120 ng (~60 ug/kg) BQ788 in DMSO IP 3x per week x 6 weeks) [%] | clearance of lung metastases ([4]; SKMEL28 xenograft mice, 120 ng (~60 ug/kg) BQ788 in DMSO IP 3x per week x 6 weeks, vs control mice) [%] | apoptosis in melanoma tumor cells ([4]; melanoma tumor cells) | tumor growth [5]
1 | CCCOc1ccc([C@H]2[C@H](C(=O)O)[C@@H](c3ccc4c(c3)OCO4)CN2CC(=O)Nc2c(CC)cccc2CC)cc1 [A192621, (2R,3R,4S)-4-(1,3-benzodioxol-5-yl)-1-[2-(2,6-diethylanilino)-2-oxoethyl]-2-(4-propoxyphenyl)pyrrolidine-3-carboxylic acid] | 8.06 | 8.35 | shrinks CNS melanoma tumors | shrinks brain melanoma metastases | increases survival |  |  |  |  | 
2 | CCCC[C@@H](NC(=O)[C@@H](Cc1cn(C(=O)OC)c2ccccc12)NC(=O)[C@H](CC(C)(C)C)NC(=O)N1[C@H](C)CCC[C@@H]1C)C(=O)O [BQ788] | 7.75 | 8.92 |  |  |  | 5 | 75 | > 95 | induces apoptosis | 
3 | CC(C)(C)c1nc(-c2cccc(NS(=O)(=O)c3c(F)cccc3F)c2F)c(-c2ccnc(N)n2)s1 [Dabrafenib] |  |  |  |  |  |  |  |  |  | retarded the growth of tumors; also recorded: retarded tumor growth
